Reference: patent EP1015446B1, “(4-PIPERIDINYL)-1H-2-BENZOPYRAN DERIVATIVES USEFUL AS ANTIPSYCHOTIC AGENTS” (Aventis Pharmaceuticals Inc., priority 1997, dated 1998)
pKi: −log10 of the molar value. Where a name gives a salt, the structure may show the parent alone.

These compounds were tested on CD-1 male mice (assay: Climbing mouse assay (CMA): antagonism of apomorphine-induced climbing). Details: not given.
Assay type: in vivo
Protocol: This test may be used as to identify compounds useful in treating psychosis. Costall, B. et al, Eur. J. Pharm. 50: 39-50 (1978); Protais, P., et al., Psychopharmacology 50:1-6 (1976). […] This effect of apomorphine is antagonized by the D2 receptor antagonist.
CD-1 male mice (20-30 grams) are assigned to groups of 8 and individually placed in wire mesh stick cages and allowed one hour for adaptation to new environment. Apomorphine is injected at 1.5 mg/kg subcutaneously which is a dose which causes climbing in all subjects for thirty minutes. Test compounds are administered intraperitoneally thirty minutes prior to the apomorphine administration at a dose of 20 mg/kg.
For evaluation of climbing, three readings are taken at ten, twenty and thirty minutes after apomorphine administration according to the following scale:
The climbing scores are individually totaled (maximal score: 6 per mouse over three readings) and total score of the control (vehicle intraperitoneally (ip) and apomorphine subcutaneous) is set to 100%. ED50 values with 95% confidence limits calculated by a linear regression analysis of some of the compounds of the present invention as well as a standard antipsychotic agent (clozapine) are presented in Table 1.

Compound | ED50
NC[C@@H]1O[C@H](C2CCN(CCc3ccccc3)CC2)Cc2c1ccc(O)c2O (relative stereo) [Example 4D, cis-1-(Aminomethyl)-3,4-dihvdro-3-[1-(2-phenylethyl)-4-piperidinyl]-1H-2-benzopyran-5,6-diol Dihydrobromide Sesquihydrate] | 8.1 mg/kg

Same assay, conditions: ip, thirty minutes prior to apomorphine 1.5 mg/kg subcutaneously, climbing scored at ten, twenty and thirty minutes, linear regression analysis, read-out: ED50

Compound | ED50
Br.Br.CC(=O)Oc1ccc2c(c1OC(C)=O)C[C@@H](C1CCN(CCc3ccccc3)CC1)O[C@H]2CN (relative stereo) [Example 4E, cis-1-(Aminomethyl)-5,6-diacetoxy-3,4-dihydro-3-[1-(2-phenylethyl)-4-piperidinyl]-1H-2-benzopyran Dihydrobromide] | 11.1 mg/kg
Br.Br.CNC[C@@H]1O[C@H](C2CCN(CCc3ccccc3)CC2)Cc2c1ccc(O)c2O (relative stereo) [Example 5, cis-1-(N-Methylaminomethyl)-3,4-dihydro-3-[1-(2-phenylethyl)-4-piperidinyl)-1H-2-benzopyran-5,6-diol Dihydrobromide] | 6.9 mg/kg
Br.Br.NC[C@@H]1O[C@H](C2CCN(CCCc3noc4cc(F)ccc34)CC2)Cc2c1ccc(O)c2O (relative stereo) [Example 9, cis-1-(Aminomethyl)-3,4-dihydro-3-[1-[3-(6-fluoro-1,2-benzisoxazol-3-yl)propyl]piperidin-4-yl]-1H-2-benzopyran-5,6-diol Dihydrobromide] | 16 mg/kg
COc1ccc2c(c1OC)C[C@@H](C1CCN(CCCC(=O)c3ccc(F)cc3)CC1)O[C@H]2CNC=O.Cl (relative stereo) [Example 21, N-[3-[1-[4-(4-Fluorophenyl)-4-oxobutyl]-4-piperidinyl]-3,4-dihydro-5,6-dimethoxy-1H-2-benzopyran-1-ylmethyl]formamide Hydrochloride] | 19.6 mg/kg
CN1CCN(C2=Nc3cc(Cl)ccc3Nc3ccccc32)CC1 [Clozapine, reference compound] | 8.1 mg/kg

What follows are compounds tested against T1, cloned human dopamine D2Long receptors (Homo sapiens, UniProt P14416) (assay: biochemical). Details: not given.
T1 construct: expressed in transfected cells; membranes used
T1 sequence (P14416 whole entry): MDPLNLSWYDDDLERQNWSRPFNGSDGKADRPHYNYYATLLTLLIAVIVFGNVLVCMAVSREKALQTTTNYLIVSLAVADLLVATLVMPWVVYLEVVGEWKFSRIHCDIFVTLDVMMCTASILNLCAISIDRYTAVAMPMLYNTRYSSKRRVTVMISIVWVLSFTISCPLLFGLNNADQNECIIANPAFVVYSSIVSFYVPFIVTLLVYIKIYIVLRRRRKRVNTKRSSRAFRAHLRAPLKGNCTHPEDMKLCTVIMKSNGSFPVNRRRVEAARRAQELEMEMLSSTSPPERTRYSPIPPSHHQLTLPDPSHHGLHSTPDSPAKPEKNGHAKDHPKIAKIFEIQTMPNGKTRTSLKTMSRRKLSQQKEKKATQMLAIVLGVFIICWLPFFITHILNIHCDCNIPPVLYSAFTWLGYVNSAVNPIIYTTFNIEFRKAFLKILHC
Assay type: binding

Compound | pKi
O=CNC[C@@H]1O[C@H](C2CCN(CCCC(c3ccc(F)cc3)c3ccc(F)cc3)CC2)Cc2c1ccc1c2OC2(CCCCC2)O1 [Example 28, cis-N-[3-[1-[4,4-Bis-(4-fluorophenyl)butyl]-4-DiDeridinyl]-5,6-(cyclohexylidenedioxy)-3,4-dihydro-1H-2-benzopyran-1-ylmethyl]formamide Oxalate Hemihydrate] | 6.19

Same assay, conditions: Binding to Human D2Long Receptors; displacement of [3H]N-methyl spiroperidol (0.4 nM), membranes of transfected Chinese Hamster Ovary cells, 37 °C, 30 min; read-out: Ki

Compound | pKi
CS(=O)(=O)N1CCC([C@@H]2Cc3c(ccc(O)c3O)[C@H](CN)O2)CC1 (relative stereo) [Example 3D, cis-1-(Aminomethyl)-3,4-dihydro-3-(1-methylsulfonyl-4-piperidinyl)-1H-2-benzopyran-5,6-diol Hydrobromide] | 5.38
Br.Br.CC(=O)Oc1ccc2c(c1OC(C)=O)C[C@@H](C1CCN(CCc3ccccc3)CC1)O[C@H]2CN (relative stereo) [Example 4E, cis-1-(Aminomethyl)-5,6-diacetoxy-3,4-dihydro-3-[1-(2-phenylethyl)-4-piperidinyl]-1H-2-benzopyran Dihydrobromide] | 5.82
CCN1CCC([C@@H]2Cc3c(ccc(O)c3O)[C@H](CN)O2)CC1 (relative stereo) [Example 8, cis-1-(Aminomethyl)-3,4-dihydro-3-(1-ethyl-4-piperidinyl)-1H-2-benzopyran-5,6-diol Dihydrobromide] | 5.60
Br.Br.NC[C@@H]1O[C@H](C2CCN(CCCc3noc4cc(F)ccc34)CC2)Cc2c1ccc(O)c2O (relative stereo) [Example 9, cis-1-(Aminomethyl)-3,4-dihydro-3-[1-[3-(6-fluoro-1,2-benzisoxazol-3-yl)propyl]piperidin-4-yl]-1H-2-benzopyran-5,6-diol Dihydrobromide] | 6.75
CNC[C@@H]1O[C@H](C2CCN(CCc3ccc(OC)cc3)CC2)Cc2c1ccc(O)c2O (relative stereo) [Example 10, cis-3,4-Dihydro-3-[1-[2-(4-methoxyphenyl)ethyl]-4-piperidinyl]-1-(N-methylaminomethyl)-1H-2-benzopyran-5,6-diol Dihydrochloride] | 5.60
NC[C@@H]1O[C@H](C2CCN(CCc3cccs3)CC2)Cc2c1ccc(O)c2O (relative stereo) [Example 25, cis-1-Aminomethyl-3,4-dihydro-3-[1-(2-(thiophen-2-yl)-ethyl-4-piperidinyl]-1H-2-benzopyral-5,6-diol Dihydrochloride Hydrate] | 5.68
Cc1ccccc1CCN1CCC([C@@H]2Cc3c(ccc(O)c3O)[C@H](CN)O2)CC1 (relative stereo) [Example 26, cis-1-Aminomethyl-3,4-dihydro-3-[1-[2-(2-methylphenyl)ethyl]-4-piperidinyl]-1H-2-benzopyran-5,6-diol Dihydrochloride] | 6.16
cis-1-(3-[3-[4-[1-(Aminomethyl)-3,4-dihydro-5,6-dihydroxy-1H-2-benzopyran-3-yl]-1-piperidinyl]propoxy]-3-methoxyphenyl)ethanone Dihydrochloride Dihydrate [Example 31] | 5.96
cis-3-[1-[2-(4-Chlorophenyl)ethyl]--4-piperidinyl]-3,4-dihydro-1-(N-methylaminomethyl)-1H-2-benzopyran-5,6-diol dihydrochloride hemihydrate [Example 15] | 6.38
